Source: ChEMBL document CHEMBL1201862, “PubChem BioAssay data set” (2004)
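Exposure lasted 48 hours, with cells grown in 96-well plates and compounds tested at five concentrations. Abbreviation: GI50, concentration required for 50% inhibition of growth.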 Calls of active or inactive are those of the source. No stated cut-off is given here; in the data, active = GI50 up to about 1.1 µM and inactive = higher.

What was measured:
Experiment in all cases: inhibition of tumour cell growth, NCI panel, 48 h
[1] = test system: MDA-N
[2] = test system: RXF 393
[3] = test system: NCI/ADR-RES
[4] = test system: HT-29
[5] = test system: UACC-257
[6] = test system: NCI-H226
[7] = test system: CCRF-CEM
[8] = test system: A498
[9] = test system: HCT-15
[10] = test system: SN12C
[11] = test system: T47D
[12] = test system: SK-MEL-5
[13] = test system: SK-MEL-28
[14] = test system: KM12
[15] = test system: RPMI-8226
[16] = test system: TK-10
[17] = test system: UACC-62
[18] = test system: Malme-3M

Question: What does the source list for `O=C(O)C(CCc1ccccc1)N1C(=O)c2ccccc2C1=O` (configuration not stated)?
Answer: GI50 [1]: > 100 µM (inactive); GI50 [2]: > 100 µM (inactive); GI50 [3]: > 100 µM (inactive); GI50 [4]: > 100 µM (inactive); GI50 [5]: > 100 µM (inactive); GI50 [6]: > 100 µM (inactive); GI50 [7]: > 100 µM (inactive); GI50 [8]: > 100 µM (inactive); GI50 [9]: > 100 µM; GI50 [10]: > 100 µM (inactive); GI50 [11]: > 100 µM (inactive); GI50 [12]: > 100 µM (inactive); GI50 [13]: > 100 µM (inactive); GI50 [14]: > 100 µM (inactive); GI50 [15]: > 100 µM (inactive); GI50 [16]: > 100 µM (inactive); GI50 [17]: > 100 µM (inactive)

Question: For `CCCCC1=C(C(=O)N2CCOCC2)C2(OCCO2)C1=O`, which GI50 [1] is on record?
Answer: 21.4 µM (inactive)

Question: What about the GI50 [2] of the same compound?
Answer: 21.1 µM (inactive)

Question: What about the GI50 [3] of the same compound?
Answer: 22.2 µM (inactive)

Question: What about the GI50 [4] of the same compound?
Answer: 18.8 µM (inactive)

Question: What about the GI50 [5] of the same compound?
Answer: 28.9 µM (inactive)

Question: And the GI50 [6]?
Answer: 2.86 µM (inactive)

Question: And the GI50 [7]?
Answer: 32.2 µM (inactive)

Question: And the GI50 [18]?
Answer: 20.6 µM (inactive)

Question: And the GI50 [8]?
Answer: 27.8 µM (inactive)

Question: And the GI50 [9]?
Answer: 18.2 µM

Question: What about the GI50 [10] of the same compound?
Answer: 13.5 µM (inactive)

Question: And the GI50 [11]?
Answer: 33.9 µM (inactive)

Question: And the GI50 [12]?
Answer: 16.5 µM (inactive)

Question: And the GI50 [13]?
Answer: 27.5 µM (inactive)

Question: And the GI50 [14]?
Answer: 20.4 µM (inactive)

Question: And the GI50 [16]?
Answer: 33.3 µM (inactive)

Question: And the GI50 [17]?
Answer: 34.9 µM (inactive)

Question: For `CC(C)(C)[Si](C)(C)OCc1cccc(OCCOc2cccc(CO[Si](C)(C)C(C)(C)C)c2[N+](=O)[O-])c1[N+](=O)[O-]`, which GI50 [1] is on record?
Answer: > 100 µM (inactive)

Question: What about the GI50 [2] of the same compound?
Answer: > 100 µM (inactive)

Question: What about the GI50 [3] of the same compound?
Answer: > 100 µM (inactive)

Question: And the GI50 [4]?
Answer: > 100 µM (inactive)

Question: And the GI50 [5]?
Answer: > 100 µM (inactive)

Question: What about the GI50 [6] of the same compound?
Answer: > 100 µM (inactive)

Question: What about the GI50 [7] of the same compound?
Answer: > 100 µM (inactive)

Question: And the GI50 [18]?
Answer: > 100 µM (inactive)

Question: And the GI50 [8]?
Answer: > 100 µM (inactive)

Question: And the GI50 [9]?
Answer: > 100 µM

Question: And the GI50 [10]?
Answer: > 100 µM (inactive)

Question: What about the GI50 [11] of the same compound?
Answer: > 100 µM (inactive)

Question: And the GI50 [12]?
Answer: > 100 µM (inactive)

Question: What about the GI50 [13] of the same compound?
Answer: > 100 µM (inactive)

Question: And the GI50 [14]?
Answer: > 100 µM (inactive)

Question: What about the GI50 [16] of the same compound?
Answer: > 100 µM (inactive)

Question: What about the GI50 [17] of the same compound?
Answer: > 100 µM (inactive)

Question: For `COc1cc(S(=O)(=O)Nc2nc(-c3ccc(N4C(=O)/C(=C\c5cccs5)N=C4c4ccccc4)cc3)cs2)ccc1Cl`, which GI50 [1] is on record?
Answer: 43.1 µM (inactive)

Question: What about the GI50 [2] of the same compound?
Answer: 32.1 µM (inactive)

Question: What about the GI50 [3] of the same compound?
Answer: > 100 µM (inactive)

Question: And the GI50 [4]?
Answer: > 100 µM (inactive)

Question: What about the GI50 [5] of the same compound?
Answer: 71.3 µM (inactive)

Question: And the GI50 [6]?
Answer: > 100 µM (inactive)

Question: And the GI50 [7]?
Answer: 41 µM (inactive)

Question: And the GI50 [18]?
Answer: 23.6 µM (inactive)

Question: What about the GI50 [8] of the same compound?
Answer: > 100 µM (inactive)

Question: And the GI50 [9]?
Answer: > 100 µM

Question: What about the GI50 [10] of the same compound?
Answer: 58.5 µM (inactive)

Question: And the GI50 [11]?
Answer: 45.8 µM (inactive)

Question: What about the GI50 [12] of the same compound?
Answer: 43.2 µM (inactive)

Question: What about the GI50 [13] of the same compound?
Answer: 71.6 µM (inactive)

Question: And the GI50 [14]?
Answer: 94 µM (inactive)

Question: And the GI50 [16]?
Answer: > 100 µM (inactive)

Question: And the GI50 [17]?
Answer: 25.3 µM (inactive)

Question: What does the source list for `O=C(/C=C/c1ccc2c(c1)OCO2)c1ccccc(=O)c1O`?
Answer: GI50 [1]: 16.4 µM (inactive); GI50 [3]: 2.08 µM (inactive); GI50 [4]: 9.51 µM (inactive); GI50 [5]: 17.9 µM (inactive); GI50 [6]: 35.6 µM (inactive); GI50 [7]: 0.0376 µM (active); GI50 [18]: 23.3 µM (inactive); GI50 [8]: 29.9 µM (inactive); GI50 [9]: 3.85 µM; GI50 [10]: 21.7 µM (inactive); GI50 [11]: 20.9 µM (inactive); GI50 [12]: 7.66 µM (inactive); GI50 [13]: 21.2 µM (inactive); GI50 [14]: 8.43 µM (inactive); GI50 [15]: 7.14 µM (inactive); GI50 [16]: 18.8 µM (inactive); GI50 [17]: 7.73 µM (inactive)

Question: Which results are given for `COCO[C@@H]1C[C@H]2C(=O)N(COC)c3ccccc3C(=O)N2C1`?
Answer: GI50 [1]: > 100 µM (inactive); GI50 [2]: > 100 µM (inactive); GI50 [3]: > 100 µM (inactive); GI50 [4]: > 100 µM (inactive); GI50 [5]: > 100 µM (inactive); GI50 [6]: > 100 µM (inactive); GI50 [7]: > 100 µM (inactive); GI50 [18]: > 100 µM (inactive); GI50 [8]: > 100 µM (inactive); GI50 [9]: > 100 µM; GI50 [10]: > 100 µM (inactive); GI50 [11]: > 100 µM (inactive); GI50 [12]: > 100 µM (inactive); GI50 [13]: > 100 µM (inactive); GI50 [14]: > 100 µM (inactive); GI50 [16]: > 100 µM (inactive); GI50 [17]: > 100 µM (inactive)
